Test results as given in patent publication US11400091B2, “AXL kinase inhibitors and use of the same” (Sumitomo Pharma Oncology, Inc., priority 2018, dated 2022).

What was measured:
[1] = tested on: KRAS mutant HCT-116; test: HCT-116 xenograft; format: in vivo, athymic nude mice
Method: Athymic nude mice were injected in the hind-flank with 10 million cells and stratified into cohorts of 10 mice. Compounds were formulated in 5% (w/v) TPGS and 1% (v/v) PS80 in H20 and administered my oral gavage. Tumor volumes (FIG. 106A) and body weights were measured twice a week (FIG. 106B). Intra-tumoral GAS6 expression was quantified via RT-qPCR.

[2] = Single dose toxicity study; format: in vivo; settings: single oral 150 mg/kg (free base equivalent); by the end of the recovery period
Method: The FB dose levels evaluated were 20, 50, and 150 mg/kg. The test articles were formulated with 1% Tween 80/5% TPGS/Sterile Water for Injection (v/v/v) and the study designed as indicated in Table 15 below:
Endpoints in the study consisted of mortality checks, clinical observations, body weight measurements and toxicokinetics. Following a 7-day post-dose observation period, animals were euthanized, necropsied and macroscopic observations recorded.

## CN1CCN(Cc2ccc(Nc3ncc(Cl)c(Nc4ccccc4S(=O)(=O)N(C)C)n3)cc2)CC1 [compound of structure (I), 2-((5-chloro-2-((4-((4-methylpiperazin-1-yl)methyl)phenyl)amino)pyrimidin-4-yl)amino)-N,N-dimethylbenzenesulfonamide]
[1]; 40 mg/kg cohort
  adverse events: without adverse events
[1]; 40 mg/kg, oral gavage
  tumor growth inhibition (% TGI): 69%
[2]
  mortality: 100%
